Measured values reported in PubChem BioAssay (NCI).
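Each compound was tested at five concentrations against cells in 96-well plates for 48 hours. TGI marks complete inhibition of growth.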

Tests used:
Experiment in all cases: NCI tumour cell line growth inhibition, 48 h
HCC-2998 colon = tested on: HCC-2998 colon
HT29 colon = tested on: HT29 colon
LXFL 529 NSCLC = tested on: LXFL 529 NSCLC
SK-MEL-5 melanoma = tested on: SK-MEL-5 melanoma
NCI-H226 lung = tested on: NCI-H226 lung
RXF-631 renal = tested on: RXF-631 renal
HCT-15 colon = tested on: HCT-15 colon
KM12 colon = tested on: KM12 colon
SW-620 colon = tested on: SW-620 colon
U251 CNS = tested on: U251 CNS
HOP-18 NSCLC = tested on: HOP-18 NSCLC
SNB-19 CNS = tested on: SNB-19 CNS
OVCAR-3 ovarian = tested on: OVCAR-3 ovarian
UACC-62 melanoma = tested on: UACC-62 melanoma
HOP-92 NSCLC = tested on: HOP-92 NSCLC
SF-295 CNS = tested on: SF-295 CNS
SK-MEL-2 melanoma = tested on: SK-MEL-2 melanoma
A549 NSCLC = tested on: A549 NSCLC
SK-OV-3 ovarian = tested on: SK-OV-3 ovarian
SR leukemia = tested on: SR leukemia
NCI-H522 lung = tested on: NCI-H522 lung
M14 melanoma = tested on: M14 melanoma
COLO 205 colon = tested on: COLO 205 colon
SF-539 CNS = tested on: SF-539 CNS
NCI-H23 lung = tested on: NCI-H23 lung
DMS 114 small cell lung = tested on: DMS 114 small cell lung
CAKI-1 renal = tested on: CAKI-1 renal
SNB-75 CNS = tested on: SNB-75 CNS
M19-MEL melanoma = tested on: M19-MEL melanoma
MOLT-4 leukemia = tested on: MOLT-4 leukemia
RXF 393 renal = tested on: RXF 393 renal
SNB-78 CNS = tested on: SNB-78 CNS
OVCAR-8 ovarian = tested on: OVCAR-8 ovarian
EKVX NSCLC = tested on: EKVX NSCLC
HL-60(TB) leukemia = tested on: HL-60(TB) leukemia
ACHN renal = tested on: ACHN renal
DLD-1 colon = tested on: DLD-1 colon
NCI-H460 lung = tested on: NCI-H460 lung
UO-31 renal = tested on: UO-31 renal
DMS 273 small cell lung = tested on: DMS 273 small cell lung
SK-MEL-28 melanoma = tested on: SK-MEL-28 melanoma
OVCAR-4 ovarian = tested on: OVCAR-4 ovarian
IGROV1 ovarian = tested on: IGROV1 ovarian
MALME-3M melanoma = tested on: MALME-3M melanoma
OVCAR-5 ovarian = tested on: OVCAR-5 ovarian
KM20L2 colon = tested on: KM20L2 colon
CCRF-CEM leukemia = tested on: CCRF-CEM leukemia
RPMI-8226 leukemia = tested on: RPMI-8226 leukemia
SN12C renal = tested on: SN12C renal
A498 renal = tested on: A498 renal
HOP-62 NSCLC = tested on: HOP-62 NSCLC
UACC-257 melanoma = tested on: UACC-257 melanoma
HCT-116 colon = tested on: HCT-116 colon
LOX IMVI melanoma = tested on: LOX IMVI melanoma
SF-268 CNS = tested on: SF-268 CNS
K-562 leukemia = tested on: K-562 leukemia
XF 498 CNS = tested on: XF 498 CNS
TK-10 renal = tested on: TK-10 renal
MCF7 breast = tested on: MCF7 breast
NCI/ADR-RES ovarian = tested on: NCI/ADR-RES ovarian
SN12K1 renal = tested on: SN12K1 renal
P388/ADR leukemia = tested on: P388/ADR leukemia
P388 leukemia = tested on: P388 leukemia

Nc1nnc(CCC(=O)Nc2cc(Cl)ccc2Cl)n1N
TGI (HCC-2998 colon): > 100 µM | TGI (HT29 colon): > 100 µM | TGI (LXFL 529 NSCLC): > 100 µM | TGI (SK-MEL-5 melanoma): > 100 µM | TGI (NCI-H226 lung): > 100 µM | TGI (RXF-631 renal): > 100 µM | TGI (HCT-15 colon): > 100 µM | TGI (KM12 colon): > 100 µM | TGI (SW-620 colon): > 100 µM | TGI (U251 CNS): > 100 µM | TGI (HOP-18 NSCLC): > 100 µM | TGI (SNB-19 CNS): > 100 µM | TGI (OVCAR-3 ovarian): > 100 µM | TGI (UACC-62 melanoma): > 100 µM | TGI (HOP-92 NSCLC): > 100 µM | TGI (SF-295 CNS): > 100 µM | TGI (SK-MEL-2 melanoma): > 100 µM | TGI (A549 NSCLC): > 100 µM | TGI (SK-OV-3 ovarian): > 100 µM | TGI (SR leukemia): > 100 µM | TGI (NCI-H522 lung): > 100 µM | TGI (M14 melanoma): > 100 µM | TGI (COLO 205 colon): > 100 µM | TGI (SF-539 CNS): > 100 µM | TGI (NCI-H23 lung): > 100 µM | TGI (DMS 114 small cell lung): > 100 µM | TGI (CAKI-1 renal): > 100 µM | TGI (SNB-75 CNS): > 100 µM | TGI (M19-MEL melanoma): > 100 µM | TGI (MOLT-4 leukemia): > 100 µM | TGI (RXF 393 renal): > 100 µM | TGI (SNB-78 CNS): > 100 µM | TGI (OVCAR-8 ovarian): > 100 µM | TGI (EKVX NSCLC): > 100 µM | TGI (HL-60(TB) leukemia): > 100 µM | TGI (ACHN renal): > 100 µM | TGI (DLD-1 colon): > 100 µM | TGI (NCI-H460 lung): > 100 µM | TGI (UO-31 renal): > 100 µM | TGI (DMS 273 small cell lung): > 100 µM | TGI (SK-MEL-28 melanoma): > 100 µM | TGI (OVCAR-4 ovarian): > 100 µM | TGI (IGROV1 ovarian): > 100 µM | TGI (MALME-3M melanoma): > 100 µM | TGI (OVCAR-5 ovarian): > 100 µM | TGI (KM20L2 colon): > 100 µM | TGI (CCRF-CEM leukemia): > 100 µM | TGI (RPMI-8226 leukemia): > 100 µM | TGI (SN12C renal): > 100 µM | TGI (A498 renal): > 100 µM | TGI (HOP-62 NSCLC): > 100 µM | TGI (UACC-257 melanoma): > 100 µM | TGI (HCT-116 colon): > 100 µM | TGI (LOX IMVI melanoma): > 100 µM | TGI (SF-268 CNS): > 100 µM | TGI (K-562 leukemia): > 100 µM | TGI (XF 498 CNS): > 100 µM | TGI (TK-10 renal): > 100 µM

CCOCC(=O)N(C)c1cccc2c3c(n(C)c12)CCCCC3
TGI (HCC-2998 colon): > 100 µM | TGI (MCF7 breast): > 100 µM | TGI (HT29 colon): > 100 µM | TGI (SK-MEL-5 melanoma): > 100 µM | TGI (NCI-H226 lung): > 100 µM | TGI (HCT-15 colon): > 100 µM | TGI (KM12 colon): > 100 µM | TGI (SW-620 colon): > 100 µM | TGI (U251 CNS): > 100 µM | TGI (NCI/ADR-RES ovarian): > 100 µM | TGI (HOP-18 NSCLC): > 20.9 µM | TGI (SNB-19 CNS): > 100 µM | TGI (OVCAR-3 ovarian): > 100 µM | TGI (UACC-62 melanoma): > 100 µM | TGI (HOP-92 NSCLC): > 100 µM | TGI (SF-295 CNS): > 100 µM | TGI (SK-MEL-2 melanoma): > 100 µM | TGI (A549 NSCLC): > 100 µM | TGI (SK-OV-3 ovarian): > 100 µM | TGI (NCI-H522 lung): > 100 µM | TGI (COLO 205 colon): > 100 µM | TGI (SF-539 CNS): > 100 µM | TGI (NCI-H23 lung): > 100 µM | TGI (DMS 114 small cell lung): > 100 µM | TGI (CAKI-1 renal): > 100 µM | TGI (SNB-75 CNS): > 100 µM | TGI (M19-MEL melanoma): > 100 µM | TGI (MOLT-4 leukemia): > 100 µM | TGI (RXF 393 renal): > 100 µM | TGI (SNB-78 CNS): > 100 µM | TGI (OVCAR-8 ovarian): > 100 µM | TGI (EKVX NSCLC): > 100 µM | TGI (HL-60(TB) leukemia): > 100 µM | TGI (DLD-1 colon): > 100 µM | TGI (NCI-H460 lung): > 100 µM | TGI (SN12K1 renal): > 100 µM | TGI (DMS 273 small cell lung): > 31.6 µM | TGI (P388/ADR leukemia): > 100 µM | TGI (SK-MEL-28 melanoma): > 100 µM | TGI (OVCAR-4 ovarian): > 100 µM | TGI (IGROV1 ovarian): > 100 µM | TGI (MALME-3M melanoma): > 100 µM | TGI (OVCAR-5 ovarian): > 100 µM | TGI (KM20L2 colon): > 100 µM | TGI (CCRF-CEM leukemia): > 100 µM | TGI (P388 leukemia): > 100 µM | TGI (SN12C renal): > 100 µM | TGI (A498 renal): > 100 µM | TGI (HOP-62 NSCLC): > 100 µM | TGI (UACC-257 melanoma): > 100 µM | TGI (HCT-116 colon): > 100 µM | TGI (LOX IMVI melanoma): > 100 µM | TGI (SF-268 CNS): > 100 µM | TGI (K-562 leukemia): > 100 µM | TGI (XF 498 CNS): > 100 µM
